From ChEMBL document CHEMBL1135114, “Syntheses and bioactivities of novel carbamates combining platelet activating factor (PAF) receptor antagonist with thromboxane synthase inhibitor (TxSI)” (Bioorg Med Chem Lett, 2002) come the findings set out here.

SMILES strings stand for the structures. Where only a bound is given, the exact number is not on record here.

Assay [1] concerns Mus musculus. Nature of the assay: Ability to protect mice from the lethal effect of Platelet activating factor on po administration of compound. In kind it is functional.
The species entered for the next assay is Oryctolagus cuniculus. Nature of the assay: The compound was tested for inhibition of Platelet activating factor (PAF) induced platelet aggregation in rabbit platelet rich plasma. In kind it is functional.
In assay [2] the test system is Rattus norvegicus. The assay is described as follows: Inhibition of serum TXB2 production in the rats after intravenous administration. In kind it is functional.
The subject of assay [3] is Rattus norvegicus. The assay is described as follows: Inhibition of serum TXB2 production in the rats after peroral administration. To be noted: po. In kind it is functional.
Another assay has as its target T1, Thromboxane-A synthase (Homo sapiens, UniProt P24557).
T1 sequence (P24557 whole entry): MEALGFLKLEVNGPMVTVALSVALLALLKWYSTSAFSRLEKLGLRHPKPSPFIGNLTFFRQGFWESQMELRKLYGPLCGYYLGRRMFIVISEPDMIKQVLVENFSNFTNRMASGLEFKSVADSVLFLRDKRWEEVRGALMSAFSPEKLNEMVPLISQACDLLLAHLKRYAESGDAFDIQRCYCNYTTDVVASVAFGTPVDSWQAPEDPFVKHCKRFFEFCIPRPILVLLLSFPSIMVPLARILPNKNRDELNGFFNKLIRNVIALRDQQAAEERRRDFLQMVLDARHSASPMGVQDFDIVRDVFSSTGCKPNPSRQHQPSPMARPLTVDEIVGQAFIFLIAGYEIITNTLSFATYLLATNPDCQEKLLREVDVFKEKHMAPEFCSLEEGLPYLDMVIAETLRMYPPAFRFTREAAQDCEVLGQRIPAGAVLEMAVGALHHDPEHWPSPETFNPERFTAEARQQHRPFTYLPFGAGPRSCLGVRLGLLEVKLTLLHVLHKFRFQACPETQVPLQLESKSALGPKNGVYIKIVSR
The assay is described as follows: Thromboxane A2 synthase inhibitory activity was measured from inhibition of thromboxane B2 production in human platelet microsomes. Also on record: species or system Microsome.

Assay [4] deals with Mus musculus. The assay is described as follows: Ability to protect mice from the lethal effect of Platelet activating factor on iv administration of compound. The format is functional.

For `CCOC(=O)CCCC/[N+]([O-])=C(/c1cccnc1)c1cccc(CN2CCc3c(sc4c3C(c3ccccc3Cl)=NCc3nnc(C)n3-4)C2)c1`, the ED50 (commonly the midpoint of the dose-response relation) in the assay with Mus musculus [1] was > 10 mg/kg; in the assay with Rattus norvegicus [2] it was 0.1 mg/kg; in the assay with Rattus norvegicus [3] it was > 10 mg/kg; with Mus musculus [4], 0.8 mg/kg. Also, the IC50 (commonly the concentration that inhibits the measured activity by half) in the assay listed under Oryctolagus cuniculus is 190 nM; at Thromboxane-A synthase, 67 nM.

Take `CCOC(=O)CCCC/[N+]([O-])=C(/c1cccnc1)c1cccc(COC(=O)N2CCc3c(sc4c3C(c3ccccc3Cl)=NC(C)c3nnc(C)n3-4)C2)c1` (stereo not drawn): the ED50 in the assay with Mus musculus [1] was > 10 mg/kg; with Rattus norvegicus [2], 0.1 mg/kg; in the assay with Rattus norvegicus [3], > 10 mg/kg; with Mus musculus [4], 0.2 mg/kg. Moreover, the figures for the IC50 in the assay listed under Oryctolagus cuniculus and on Thromboxane-A synthase were 41 nM and 69 nM, respectively.

As for `CCOC(=O)CCCC/[N+]([O-])=C(/c1cccnc1)c1cccc(COC(=O)N2CCc3c(sc4c3C(c3ccccc3Cl)=NCc3nnc(C)n3-4)C2)c1`, the ED50 is > 10 mg/kg with Mus musculus [1], 0.1 mg/kg with Rattus norvegicus [2], > 10 mg/kg in the assay on Rattus norvegicus [3] and 0.7 mg/kg in the assay on Mus musculus [4]. Besides, the IC50 in the assay listed under Oryctolagus cuniculus was 139 nM; on Thromboxane-A synthase it was 62 nM.

With `CCOC(=O)CCCC/[N+]([O-])=C(/c1cccnc1)c1cccc(CN2CCc3c(sc4c3C(c3ccccc3Cl)=NC(C)c3nnc(C)n3-4)C2)c1` (stereo not drawn), the ED50 in the assay on Mus musculus [1] is > 10 mg/kg; in the assay with Rattus norvegicus [2], 0.1 mg/kg; with Rattus norvegicus [3], > 10 mg/kg; with Mus musculus [4], 0.2 mg/kg. Moreover, the IC50 in the assay listed under Oryctolagus cuniculus is 47 nM; against Thromboxane-A synthase, 60 nM.

On to `O=C(O)CCCC/C=C(/c1ccccc1)c1cccnc1` [ISBOGREL], for which the ED50 was found to be 0.01 mg/kg in the assay on Rattus norvegicus [2] and 0.05 mg/kg in the assay with Rattus norvegicus [3].

Regarding `O=C(O)/C=C/c1ccc(Cn2ccnc2)cc1` [OZAGREL], the results for the ED50 with Rattus norvegicus [2] and in the assay on Rattus norvegicus [3] were 0.02 mg/kg and 0.1 mg/kg, respectively.
